Experimental data from the supplement of paper PMC13380429.

Legend:
Conditions in all cases: 72 h
HepG2 [1] = test: drug sensitivity score (DSS) for viability; higher = more toxic; extreme values may be limits of the assay
Vero E6 [2] = test: as above
Calu-3 [3] = test: as above
U2OS [4] = test: as above
Caco-2 [5] = test: as above
HepG2 [6] = test: cell viability relative to DMSO; higher = less toxic
Vero E6 [7] = test: as above
Calu-3 [8] = test: as above
U2OS [9] = test: as above
Caco-2 [10] = test: as above
HepG2 [11] = test: relative viability EC50 (midpoint between 100% and the lowest measured viability); higher = less toxic
Vero E6 [12] = test: as above
Calu-3 [13] = test: as above
U2OS [14] = test: as above
Caco-2 [15] = test: as above

Row | SMILES | drug sensitivity score (HepG2 [1]) | drug sensitivity score (Vero E6 [2]) | drug sensitivity score (Calu-3 [3]) | drug sensitivity score (U2OS [4]) | drug sensitivity score (Caco-2 [5]) | cell viability (HepG2 [6]; 1 nM) [%] | cell viability (HepG2 [6]; 10 nM) [%] | cell viability (HepG2 [6]; 100 nM) [%] | cell viability (HepG2 [6]; 1000 nM) [%] | cell viability (HepG2 [6]; 10000 nM) [%] | cell viability (Vero E6 [7]; 1 nM) [%] | cell viability (Vero E6 [7]; 10 nM) [%] | cell viability (Vero E6 [7]; 100 nM) [%] | cell viability (Vero E6 [7]; 1000 nM) [%] | cell viability (Vero E6 [7]; 10000 nM) [%] | cell viability (Calu-3 [8]; 1 nM) [%] | cell viability (Calu-3 [8]; 10 nM) [%] | cell viability (Calu-3 [8]; 100 nM) [%] | cell viability (Calu-3 [8]; 1000 nM) [%] | cell viability (Calu-3 [8]; 10000 nM) [%] | cell viability (U2OS [9]; 1 nM) [%] | cell viability (U2OS [9]; 10 nM) [%] | cell viability (U2OS [9]; 100 nM) [%] | cell viability (U2OS [9]; 1000 nM) [%] | cell viability (U2OS [9]; 10000 nM) [%] | cell viability (Caco-2 [10]; 1 nM) [%] | cell viability (Caco-2 [10]; 10 nM) [%] | cell viability (Caco-2 [10]; 100 nM) [%] | cell viability (Caco-2 [10]; 1000 nM) [%] | cell viability (Caco-2 [10]; 10000 nM) [%] | relative viability EC50 (HepG2 [11]) [µM] | relative viability EC50 (Vero E6 [12]) [µM] | relative viability EC50 (Calu-3 [13]) [µM] | relative viability EC50 (U2OS [14]) [µM] | relative viability EC50 (Caco-2 [15]) [µM]
1 | CC(C)C(=O)Oc1ccc(CO)cc1[C@H](CCN(C(C)C)C(C)C)c1ccccc1 [fesoterodine] | 3 | 0 | 0 | 0 | 0 | 101 | 104 | 83.7 | 90.9 | 90.7 | 100 | 99.9 | 99.2 | 104 | 92.6 | 102 | 97.3 | 90.2 | 100 | 104 | 105 | 95.8 | 98.2 | 99.8 | 100 | 91.6 | 99.1 | 103 | 98.8 | 96.5 | > 10 | > 10 | > 10 | > 10 | > 10
2 | CC(C)OC(=O)C1=CN(C(=O)c2ccc(F)c(F)c2)CC(C)(C)c2c1[nH]c1ccccc21 | 0 | 0 | 0 | 0 | 0 | 95.3 | 102 | 97.3 | 92.1 | 112 | 101 | 97.6 | 95.4 | 98.7 | 98.9 | 104 | 91.3 | 103 | 96.5 | 97.8 | 98.3 | 99.6 | 95.9 | 100 | 96.3 | 84.5 | 99.7 | 86.1 | 95.2 | 89.3 | > 10 | > 10 | > 10 | > 10 | > 10
3 | CCC1=C[C@@H]2CN(C1)Cc1c([nH]c3ccccc13)[C@@](C(=O)OC)(c1cc3c(cc1OC)N(C)[C@H]1[C@@](O)(C(=O)OC)[C@H](OC(C)=O)[C@]4(CC)C=CCN5CC[C@]31[C@@H]54)C2 [vinorelbine] | 17.5 | 9.2 | 12.6 | 15.2 | 15.3 | 103 | 92.8 | 58.6 | 32.7 | 39 | 104 | 101 | 99.5 | 54 | 31.2 | 97.5 | 100 | 72.2 | 51.1 | 40.5 | 95.8 | 97 | 77.5 | 32.4 | 22.7 | 98.1 | 94.7 | 58.7 | 53 | 45.1 | 0.0659 | 0.754 | 0.137 | 0.205 | 0.0465
4 | c1ccc2oc(C3=NCCN3)cc2c1 [2-BFI] | 0 | 0 | 0 | 0 | 0 | 97.9 | 98.3 | 87.5 | 98 | 100 | 93.8 | 100 | 90.5 | 94.4 | 107 | 95.9 | 99.7 | 102 | 100 | 95.7 | 100 | 96.7 | 99.7 | 99.9 | 97.7 | 102 | 96.2 | 97.7 | 93.6 | 112 | > 10 | > 10 | > 10 | > 10 | > 10
5 | CC(C)(F)C[C@H](N[C@@H](c1ccc(-c2ccc(S(C)(=O)=O)cc2)cc1)C(F)(F)F)C(=O)NC1(C#N)CC1 [odanacatib] | 0 | 0 | 0 | 0 | 0 | 110 | 104 | 99.4 | 101 | 94.1 | 101 | 98.8 | 99.8 | 99.4 | 106 | 98.3 | 97.1 | 100 | 115 | 98.7 | 103 | 108 | 93.3 | 102 | 94.8 | 96.1 | 99.9 | 99.1 | 94.1 | 90.4 | > 10 | > 10 | > 10 | > 10 | > 10
6 | CC1(C)C(/C=C/C=C/C=C/C=C2\N(CCCCS(=O)(=O)O)c3ccc4ccccc4c3C2(C)C)=[N+](CCCCS(=O)(=O)[O-])c2ccc3ccccc3c21 [indocyanine-green] | 0 | 0 | 0 | 0 | 0.4 | 93.1 | 89.4 | 106 | 94.9 | 94.5 | 96.5 | 99.4 | 102 | 101 | 94.1 | 98.6 | 108 | 91.6 | 96 | 88.3 | 105 | 101 | 97.4 | 99.1 | 95.4 | 98.2 | 87.1 | 105 | 94.8 | 86.9 | > 10 | > 10 | > 10 | > 10 | > 10
7 | COc1cc(C(=S)N2CCOCC2)ccc1O [vanitiolide] | 0 | 0 | 0 | 0 | 0 | 99.8 | 92.8 | 97.2 | 102 | 109 | 97.2 | 91.6 | 93.4 | 95.2 | 105 | 108 | 108 | 99.1 | 98.4 | 104 | 104 | 99.5 | 95.4 | 98.7 | 101 | 87.7 | 92.9 | 102 | 106 | 97.6 | > 10 | > 10 | > 10 | > 10 | > 10
8 | CO[C@H]1[C@H](O)[C@@H](O)[C@@H](O)[C@H](O)[C@@H]1O [pinitol] | 0 | 0 | 0 | 0 | 0 | 99.2 | 95.1 | 85.4 | 80 | 96.6 | 102 | 106 | 104 | 92.1 | 93.4 | 83.9 | 100 | 89.7 | 96.5 | 94.2 | 96.5 | 97.5 | 98.4 | 99.8 | 96 | 107 | 84.5 | 104 | 94 | 97 | > 10 | > 10 | > 10 | > 10 | > 10
9 | C[C@@H]1NC(C)(C)CO[C@@]1(O)c1cccc(Cl)c1 [radafaxine] | 0 | 0 | 0 | 0 | 0 | 98.3 | 99.7 | 97.6 | 98.4 | 90.3 | 100 | 97.9 | 106 | 96.4 | 105 | 95.4 | 92.4 | 94.1 | 101 | 90.3 | 101 | 103 | 101 | 102 | 97.5 | 90.2 | 94.4 | 97.4 | 99.9 | 95 | > 10 | > 10 | > 10 | > 10 | > 10
10 | COC(=O)CCc1ccc(OCC(O)CNC(C)C)cc1 (stereo not given) [esmolol] | 0 | 0 | 0 | 0 | 0 | 110 | 102 | 94.5 | 109 | 96.5 | 97.2 | 93.1 | 95.5 | 100 | 95.5 | 111 | 99.8 | 96.9 | 105 | 102 | 101 | 95 | 94.6 | 94.1 | 99 | 102 | 84.8 | 98.5 | 95.5 | 97.8 | > 10 | > 10 | > 10 | > 10 | > 10
11 | COc1cccc(NC(=O)/C=C/c2ccc(Cl)cc2)c1 | 0 | 0 | 0.1 | 0 | 1.4 | 102 | 103 | 99.8 | 98.3 | 105 | 102 | 96.4 | 97.2 | 95 | 107 | 104 | 99.4 | 93.3 | 108 | 84.2 | 93 | 100 | 96.3 | 97.9 | 92.8 | 98.2 | 100 | 98.5 | 88.3 | 81 | > 10 | > 10 | > 10 | > 10 | > 10
12 | CCC/C=C1\OC(=O)C2=C1CCC=C2 [ligustilide] | 0 | 0 | 0 | 0 | 0.1 | 106 | 106 | 111 | 94.6 | 110 | 93.8 | 101 | 102 | 100 | 106 | 100 | 88.8 | 103 | 101 | 106 | 96.2 | 101 | 101 | 95.4 | 94.7 | 100 | 104 | 113 | 122 | 83.6 | > 10 | > 10 | > 10 | > 10 | > 10
13 | CC1(C)S[C@@H]2[C@H](N3C(=O)[C@@H](c4ccccc4)NC3(C)C)C(=O)N2[C@H]1C(=O)O [hetacillin] | 0 | 0 | 0 | 0 | 0 | 95.6 | 101 | 102 | 110 | 93.8 | 109 | 97.6 | 94.7 | 110 | 90.4 | 99.4 | 94.3 | 104 | 100 | 113 | 100 | 95.7 | 101 | 95 | 99.5 | 98.3 | 92.7 | 96.8 | 93.4 | 86.4 | > 10 | > 10 | > 10 | > 10 | > 10
14 | c1ccc(Oc2nc(NC3CCCCC3)c3[nH]cnc3n2)cc1 [MRS-3777] | 0 | 1.1 | 0 | 0 | 0 | 110 | 97.5 | 88.7 | 99.2 | 99.4 | 98.7 | 96.2 | 93.5 | 97.2 | 78.2 | 92.7 | 95.7 | 102 | 104 | 101 | 97.5 | 98.8 | 97.5 | 108 | 103 | 87 | 104 | 99.6 | 109 | 100 | > 10 | > 10 | > 10 | > 10 | > 10
